Data from patent publication US20250376480A1, “COMPOUND FOR LOSING WEIGHT AND IMPROVING GUT MICROBIOTA COMPOSITION AND COMPOSITION THEREOF” (SUNWAY BIOTECH CO., LTD., priority 2024, published 2025).
Marks after values point to notes of the source that are not given here.

Key:
Assay type in all cases: in vivo, rat
[1] = system: obesity rats induced by high-fat feed; experiment: Serum biochemical analysis (TC, TG) of high-fat diet rats
Procedure: (§1) The experimental rats were divided into groups, and the obesity rats were induced by high-fat feed as follows (Please refer to Table 1). • i. NOR Group: Normal animal group. • ii. HF Group: High-fat control group including obesity rats induced by high-fat feed. • iii. RL Group: Obesity rats induced by high-fat feed and tube-fed daily with red yeast rice powder, equivalent to 0.5 g of red yeast rice containing 1.5 mg of Monascinol (compound having the structure of Formula (I)) per day consumed by an adult of 60 kg. • iv. RH Group: Obesity rats induced by high-fat feed and tube-fed red yeast rice powder daily, equivalent to 2 g of red yeast rice containing 6 mg of Monascinol (compound having the structure of Formula (I)) per day consumed by an adult of 60 kg. • V. Msol Group: Obesity rats induced by high-fat feed and tube-fed Monascinol (compound having the structure of Formula (I)) powder daily, equivalent to 3 mg of Monascinol (compound having the structure of Formula (I)) powder per day consumed by an adult of 60 kg.
(§2) (4) Test Substance Feeding Method: The test substance was administered orally by tube feeding, and the concentration of the test substance was adjusted by using reverse osmosis water. 2.0 mL of sterile plastic syringes with stainless steel feeding pins were used to feed each group of test substance daily. Stainless steel feeding needles were soaked in 70% alcohol solution and rinsed with sterile distilled water several times before use. Each group of test animals was administered the test substance once a day for 8 weeks.
(5) Sacrificial Blood Sampling: At the 8th week, the rats fasted for 12-14 hours before blood sampling. […] Blood samples were centrifuged with the conditions of 4° C. and 3,000×g for 15 min.
(§3) The animals fasted for 16 hours before sacrifice, and carbon dioxide was used for asphyxiation during sacrifice. After making sure that there was no heartbeat, blood was drawn and organs were collected. […] After blood collection, the needle was slowly withdrawn from the blood vessel and the blood was placed into a 2 mL eppendorf tube and centrifuged at 10,000×g for 10 min. The upper serum layer was separated into eppendorf tubes and stored in a −20° C. freezer for future analysis.
The test was performed using a biochemical autoanalyzer (Model No.: Beckman-700, purchased from Fullerton, California, USA). The items measured were Total Cholesterol (TC), and Triglyceride (TG).

[2] = system: obesity rats induced by high-fat feed; experiment: Body weight change of obesity rats induced by high-fat feed
Procedure: (§4) Forty male rats of 8-week-old Sprague-Dawley (SD) strain were purchased from BioLASCO (Taipei, Taiwan) for the experiment. The growing environment was one with constant indoor temperature (25±1° C.), relative humidity of 60%, and 12 hours of cyclic light (light time from 8:00 to 20:00). The rats were acclimatized for four days before the formal experiment, then reared in 5 groups of 8 rats each for 8 weeks and were fed in an ad libitum feeding manner, and their body weight, food intake and water intake were measured at regular intervals during the experimental period.
The feeding dosage was calculated according to the method of “Estimating the maximum safe starting dose in initial clinical trials for therapeutics in adult healthy volunteers” published by the U.S. Food and Drug Administration in 2005. Provided that an adult of 60 kg was used as the base, the principle of dosage conversion is 6.2 times of the recommended daily intake of mg/kg bw/day for human as the recommended daily intake of mg/kg bw/day for rat, and the rat group is configured and fed with the dosage as shown in Table 1. The formulae are as follows: Dose intake per kilogram of body weight in rats=Recommended intake in humans÷Body weight 60 kg×6.2, and thus the daily dose intake per kilogram of body weight in rats can be calculated.
as §1
(4) Test Substance Feeding Method: The test substance was administered orally by tube feeding, and the concentration of the test substance was adjusted by using reverse osmosis water. 2.0 mL of sterile plastic syringes with stainless steel feeding pins were used to feed each group of test substance daily. […]
The body weight of rats was measured weekly and the changes in body weight of each group were compared at the end of the experiment.

[3] = system: obesity rats induced by high-fat feed; experiment: Liver weight and liver/body weight of high-fat diet rats
Procedure: as §4, §1, §2, §3

[4] = system: obesity rats induced by high-fat feed; experiment: Fecal lipid extraction and determination (TC, TG)
Procedure: as §1, §2
(§5) 0.1 g of liver tissue or fecal powder was weighed and 1 mL of chloroform:methanol (2:1, v/v volume ratio) was added, and homogenized with a tissue homogenizer and centrifuged to obtain the supernatant. The supernatant was then air-dried to remove the solvent, and the sample was dissolved by adding dimethyl sulfoxide (DMSO), and the extracts were kept at −20° C. The TC concentration was analyzed using a commercially available biochemical reagent (Model No. BXC 0261, Fortress), and the TG concentration was analyzed using a commercially available biochemical reagent (Model No. BXC 0271, Fortress), as per the kit instruction manual.

[5] = system: obesity rats induced by high-fat feed; experiment: Body fat mass and body fat rate (perirenal and epididymal fat) of high-fat diet rats
Procedure: as §4, §1, §2
At the time of sacrifice, fatty tissues surrounding the kidneys and the epididymis (perirenal and epididymal fatty tissues) of the experimental animals were removed, and the their weights were measured and recorded. The body fat rate was calculated as follows: Body fat efficiency=(fat weight/body weight)×100%

[6] = system: gut microbiota of high-fat diet rats; experiment: Gut microbiota fecal analysis (full-length 16S sequencing) of high-fat diet rats
Procedure: About 0.3 g of fresh feces was collected into 1.5 mL of eppendorf before fasting for sacrifice, sealed with parafilm, stored at −80° C. for analysis, and sent to BioTools (New Taipei, Taiwan) for analysis.
Total genomic DNA (QIAamp PowerFecal DNA, Qiagen) was extracted from the samples. The DNA concentration was determined by Qubit 4.0 fluorometer (Thermo Scientific) and adjusted to 1 ng/μL. The full-length 16S gene (V1-V9 region) was amplified by 16S gene-specific primers with barcodes (Forward primer 1): 5′ Phos/GCATC-16-base barcode-Sequence ID Number 11, Reverse primer 1: 5′Phos/GCATC-16-base barcode—Sequence ID Number 12). PCR reactions were performed using KAPA HiFi HotStart ReadyMix (Roche): at 95° C. for 3 min. and 20-27 cycles (Sample Dependency): at 95° C. for 30 sec., at 57° C. for 30 sec., at 72° C. for 60 sec; at 72° C. for 5 min., and finally stored at 4° C. for future use. PCR products were monitored on 1% agarose gels. Samples of approximately 1500 bp bright bands were selected and purified by using AMPure PB Beads for SMRTbell library preparation.
SMRTbell libraries were prepared based on full-length 16S gene amplifications with barcoded primers used in the Multiplex SMRTbell Library Preparation and Sequencing Program (Pacbio). Sequencing was performed in circular consensus sequencing (CCS) mode on a PacBio Sequel Ile instrument, generating HiFi read with a Phred Scale=30. The DNA to be tested will be sequenced iteratively. By comparing the results of the reverse sequencing, sequencing errors will be corrected, ultimately achieving a high accuracy of >99.9% (QV30).
Information Analysis (Sequential data processing/denoising and species annotation) The sample data from the downstream data were sorted out according to the Barcode sequence and PCR amplification primer sequences. After the removal of the barcodes and primer sequences, the data were imported into QIIME2 (v2019.7.0; https://qiime2.org/) and all the sequences of the samples were saved into one corresponding object Artifacts. QIIME2 cutadapt was used to remove the amplicon variant primers (forward primer 2: Sequence ID Number 13; reverse primer 2: Sequence ID Number 14), and the sequence with the primers removed will be used as QIIME2 DADA2. Input Reads.
The denoising analysis began with the filtering of sequences, setting each sequence to be cropped to a specified length (forward reads: 280 bp; reverse reads: 220 bp) and setting the MaxEE (forward reads: 2; reverse reads: 2) parameter as the maximum number of expected error bases allowed for the sequence. This was followed by denoising, the core algorithm of DADA2 utilizing the information of sequence abundance, quality score, and relationships between sequences to correct the […] of sequencing errors and to infer the real sequences. Splicing was performed after denoising each end of the sequence (minimum overlap length 20 bp; overlap region was not allowed to be mismatched). Finally, the spliced sequences are subjected to chimera removal by comparing the sequences with higher abundance in the sample. If a sequence with low abundance is similar to several sequences, it can be recognized as a chimera and removed from the sample. Sequences after denoising analysis were used as representative sequences of Amplicon Sequence Variants (ASVs) and can be obtained from the ASV table for subsequent species annotation. The QIIME2 feature-classifier (v2019.7.0; https://qiime2.org/) was used to select machine learning-based classification methods and to train naïve bayes classifiers for different databases and specific variability regions. The taxonomic annotation of ASVs represented by this classifier yields taxonomic information and the composition of the microbial phyla of each sample at each classification level including kingdom, phylum, class, order, family, genus, and species.
Welch's t-test was analyzed by STAMP (v2.1.3), and the intergroup species differences were plotted as bar charts. […]

[7] = system: obesity rats induced by high-fat feed; experiment: Liver lipid extraction and determination (TC, TG)
Procedure: as §1, §2, §5

[8] = Msol: Monascinol 0.31 mg/kg BW/day (adult 3 mg/day), tube-fed 8 weeks, high-fat diet SD rats, mean±SD
[9] = p<0.05, 8 weeks, RL 0.5 g/day, RH 2 g/day, Msol 3 mg/day (adult equivalent)
[10] = 8 weeks, RL 0.5 g/day, RH 2 g/day, Msol 3 mg/day (adult equivalent)
[11] = vs HF group, 8 weeks, RL 0.5 g/day, RH 2 g/day, Msol 3 mg/day (adult equivalent)
[12] = FIGS. 9A-9D, high-fat diet rats, red yeast rice 0.5 and 2 g/day, Monascinol 3 mg/day
[13] = order level, FIG. 7C, high-fat diet rats, red yeast rice 0.5 and 2 g/day, Monascinol 3 mg/day
[14] = phylum level, FIG. 7A, high-fat diet rats, red yeast rice 0.5 and 2 g/day, Monascinol 3 mg/day

C/C=C/C1=CC2=C(CO1)C(=O)C1(C)OC(=O)C(C(O)CCCCC)C1C2 (stereo not drawn) [Msol, Monascinol]
TC in serum [1, 8]: 65.0 ± 10.4^b mg/dL
TG in serum [1, 8]: 61.7 ± 10.7^a mg/dL
serum TC concentration compared with HF group [1, 9]: reduced
serum TG concentration compared with HF group ([1]; p<0.05, 8 weeks, red yeast rice at all doses (0.5 and 2 g/day), Msol 3 mg/day (adult equivalent)): significant reduction effect
Weight 8 week [2, 8]: 512.1 ± 31.1^a g
Weight gain [2, 8]: 220.8 ± 38.8^a g
Weight before Sacrifice ([2]; after fasting, Msol: Monascinol 0.31 mg/kg BW/day (adult 3 mg/day), tube-fed 8 weeks, high-fat diet SD rats, mean±SD): 488.5 ± 31.7^a g
weight gain compared with HF group [2, 9]: significantly reduced
liver-to-body-weight ratio compared with HF group [3, 10]: reduction
Liver Weight/Body Weight [3, 8]: 3.28 ± 0.37^b %
Liver weight [3, 8]: 16.84 2.31^b g
liver weight compared with HF group [3, 9]: significant decrease
Feces TC [4, 8]: 46.22 ± 4.72^c mg/g
Feces TG [4, 8]: 61.27 4.80^cd mg/g
accumulation of TG in the body (from fecal TG content) [4, 11]: effective in reducing
excretion of TC (feces) [4, 11]: significantly promoted
Fat/body weight [5, 8]: 3.35 ± 0.55^b %
body fat mass compared with HF group [5, 9]: significantly reduced
body fat percentage compared with HF group [5, 9]: significantly reduced
Fat weight ([5]; perirenal and epididymal fat, Msol: Monascinol 0.31 mg/kg BW/day (adult 3 mg/day), tube-fed 8 weeks, high-fat diet SD rats, mean±SD): 17.95 3.55^b g
F/B ratio (abundance ratio of Firmicutes to Bacteroidetes) ([6]; FIG. 7A, high-fat diet rats, red yeast rice 0.5 and 2 g/day, Monascinol 3 mg/day): decrease
content of B. thetaiotaomicron in the intestines [6, 12]: most significant
intestinal abundance of Dubosiella newyorkensis [6, 12]: increase
bacterial abundance of Bifidobacteriales in the intestine [6, 13]: increased
intestinal abundance of Verrucomicrobiales [6, 13]: increased
intestinal abundance of Eubacteriales ([6]; order level, FIG. 8, HF group 50.14%, NOR 35.07%, MSol: Monascinol adult 3 mg/day, 8 weeks, high-fat diet rats): 43.21%
abundance of Bacteroidetes [6, 14]: increase
abundance of Firmicutes [6, 14]: decrease
abundance of A. muciniphila ([6]; species level, FIG. 7F, high-fat diet-induced obesity rats, red yeast rice 0.5 and 2 g/day, Monascinol 3 mg/day): increased
hepatic TC levels compared with HF group [7, 10]: effective in reducing
Liver TC [7, 8]: 5.05 ± 0.54^a mg/g
Liver TG [7, 8]: 14.40 ± 1.57^a mg/g
liver TG content compared with HF group [7, 9]: significantly different from the HF group
